Reference: US11413243B2, “Fusogenic compounds for delivery of biologically active molecules” (Nitto Denko Corporation, priority 2017, dated 2022)

Test system: HSP47
Details: for % of HSP47 expression in Stellate Cell, Conc siRNA 18 nM / % of HSP47 expression in Stellate Cell, Conc siRNA 75 nM / % of HSP47 expression in Stellate Cell, Conc siRNA 300 nM: Table 5, stellate cells
Experimental: The in vitro activity for gene expression knockdown using an siRNA was measured using rat stellate cells in DMEM medium according to the following protocol: One day before the transfection, plate the cells in a 96-well plate at 3×10^3 cells per well for Stellate cells with 100 μl of medium containing 10% FBS and culture in a 37° C. incubator containing a humidified atmosphere of 5% CO2 in air. Before transfection, change medium to 90 μl of medium without antibiotics. Prepare the appropriate dilutions of the solution collected from the tubing in PBS buffer so that the addition of 10 μl into each well is sufficient to reach the desired concentration. 48 hours after transfection, wash the cells once with ice-cold PBS. Lyse the cells with 50 μl of Cell-to-Ct Lysis Buffer for 5-30 minutes at ambient temperature. Add 5 μl of Stop Solution and incubate for 2 minutes at ambient temperature. Measure mRNA level by qPCR with TAQMAN immediately. Alternatively, the samples can be frozen at −80° C. and assayed at later times. For qRT-PCR assay: Thaw all reagents on ice. Mix the pooled reagents in 0.2 ml PCR tubes. Dispense the set-up mixture into 384 well plate, 10 μl/well×3. Seal the plate with film, spin down mixture into the bottom of wells. Perform qRT-PCR assay.
In this example, an HSP47 siRNA was used to knockdown HSP47 gene. For TaqMan gene expression assays, HSP47 gene specific TaqMan probe was used.

| Compound | % of HSP47 expression in Stellate Cell, Conc siRNA 18 nM (siRNA 18 nM) [%] | % of HSP47 expression in Stellate Cell, Conc siRNA 75 nM (siRNA 75 nM) [%] | % of HSP47 expression in Stellate Cell, Conc siRNA 300 nM (siRNA 300 nM) [%] | % of Expression at Dose (nM) 18 nM (Table 3, siRNA 18 nM, rat stellate cells) [%] | % of Expression at Dose (nM) 75 nM (Table 3, siRNA 75 nM, rat stellate cells) [%] | % of Expression at Dose (nM) 300 nM (Table 3, siRNA 300 nM, rat stellate cells) [%] |
| --- | --- | --- | --- | --- | --- | --- |
| CCCCC/C=C\C/C=C\CCCCCCCCOC(=O)[C@H](COC(=O)CCC(=O)NCCCCC(NC(=O)CCC(=O)OC[C@H](NC(=O)CCCCCCC/C=C\C/C=C\CCCCC)C(=O)OCCCCCCCC/C=C\C/C=C\CCCCC)C(=O)NCCCOCCOCCOCCOCCOCCCNC(=O)C(CCCNC(=O)CCC(=O)OC[C@@H](NC(=O)CCCCCCC/C=C\C/C=C\CCCCC)C(=O)OCCCCCCCC/C=C\C/C=C\CCCCC)NC(=O)CCC(=O)OC[C@@H](NC(=O)CCCCCCC/C=C\C/C=C\CCCCC)C(=O)OCCCCCCCC/C=C\C/C=C\CCCCC)NC(=O)CCCCCCC/C=C\C/C=C\CCCCC (stereo partly drawn) [Compound T12] | 40.2 | 8.4 | 2.7 |  |  |  |
| CCCCC/C=C\C/C=C\CCCCCCCC(=O)OCCN(CCOC(=O)CCCCCCC/C=C\C/C=C\CCCCC)C(=O)CCC(=O)NC(CCCCNC(C)=O)C(=O)NCCCOCCOCCOCCOCCOCCCNC(=O)[C@H](CCCCNC(C)=O)NC(=O)CCC(=O)N(CCOC(=O)CCCCCCC/C=C\C/C=C\CCCCC)CCOC(=O)CCCCCCC/C=C\C/C=C\CCCCC (stereo partly drawn) [Compound T14] | 103.3 | 59.1 | 5.2 |  |  |  |
| CCCCC/C=C\C/C=C\CCCCCCCC(=O)OCC(OC(=O)CCCCCCC/C=C\C/C=C\CCCCC)C1CCN(C(=O)CCC(=O)NCCCCC(NC(=O)CCC(=O)N2CCC(C(COC(=O)CCCCCCC/C=C\C/C=C\CCCCC)OC(=O)CCCCCCC/C=C\C/C=C\CCCCC)CC2)C(=O)NCCCOCCOCCOCCOCCOCCCNC(=O)C(CCCCNC(=O)CCC(=O)N2CCC(C(COC(=O)CCCCCCC/C=C\C/C=C\CCCCC)OC(=O)CCCCCCC/C=C\C/C=C\CCCCC)CC2)NC(=O)CCC(=O)N2CCC(C(COC(=O)CCCCCCC/C=C\C/C=C\CCCCC)OC(=O)CCCCCCC/C=C\C/C=C\CCCCC)CC2)CC1 (stereo not drawn) [Compound T11] | 11.1 | 4.5 | 1.8 |  |  |  |
| CCCCCCCC/C=C\CCCCCCCC(=O)OCCN(CCOC(=O)CCCCCCC/C=C\CCCCCCCC)C(=O)CCC(=O)NCCCC[C@H](NC(=O)CCC(=O)N(CCOC(=O)CCCCCCC/C=C\CCCCCCCC)CCOC(=O)CCCCCCC/C=C\CCCCCCCC)C(=O)NCCCOCCOCCOCCOCCOCCCNC(=O)[C@H](CCCCNC(=O)CCC(=O)N(CCOC(=O)CCCCCCC/C=C\CCCCCCCC)CCOC(=O)CCCCCCC/C=C\CCCCCCCC)NC(=O)CCC(=O)N(CCOC(=O)CCCCCCC/C=C\CCCCCCCC)CCOC(=O)CCCCCCC/C=C\CCCCCCCC [Compound S7] |  |  |  | 57 | 48 | 27 |
